One data set addresses INPP5B catalytic domain (Homo sapiens, UniProt P32019). Nature of the data set: Malachite green assay with IP3 substrate, dose response. In kind it is biochemical.
In data set [1] the target is T1, INPP5B (Homo sapiens, UniProt P32019). Nature of the data set: biochemical.
In another data set the target is Synaptojanin 1 (SJ1) (Homo sapiens, UniProt O43426). Nature of the data set: Fluorescence polarization. In kind it is biochemical.
The next data set addresses T2, SHIP1 (Mus musculus, UniProt Q9ES52).
T2 sequence (Q9ES52 1-1191): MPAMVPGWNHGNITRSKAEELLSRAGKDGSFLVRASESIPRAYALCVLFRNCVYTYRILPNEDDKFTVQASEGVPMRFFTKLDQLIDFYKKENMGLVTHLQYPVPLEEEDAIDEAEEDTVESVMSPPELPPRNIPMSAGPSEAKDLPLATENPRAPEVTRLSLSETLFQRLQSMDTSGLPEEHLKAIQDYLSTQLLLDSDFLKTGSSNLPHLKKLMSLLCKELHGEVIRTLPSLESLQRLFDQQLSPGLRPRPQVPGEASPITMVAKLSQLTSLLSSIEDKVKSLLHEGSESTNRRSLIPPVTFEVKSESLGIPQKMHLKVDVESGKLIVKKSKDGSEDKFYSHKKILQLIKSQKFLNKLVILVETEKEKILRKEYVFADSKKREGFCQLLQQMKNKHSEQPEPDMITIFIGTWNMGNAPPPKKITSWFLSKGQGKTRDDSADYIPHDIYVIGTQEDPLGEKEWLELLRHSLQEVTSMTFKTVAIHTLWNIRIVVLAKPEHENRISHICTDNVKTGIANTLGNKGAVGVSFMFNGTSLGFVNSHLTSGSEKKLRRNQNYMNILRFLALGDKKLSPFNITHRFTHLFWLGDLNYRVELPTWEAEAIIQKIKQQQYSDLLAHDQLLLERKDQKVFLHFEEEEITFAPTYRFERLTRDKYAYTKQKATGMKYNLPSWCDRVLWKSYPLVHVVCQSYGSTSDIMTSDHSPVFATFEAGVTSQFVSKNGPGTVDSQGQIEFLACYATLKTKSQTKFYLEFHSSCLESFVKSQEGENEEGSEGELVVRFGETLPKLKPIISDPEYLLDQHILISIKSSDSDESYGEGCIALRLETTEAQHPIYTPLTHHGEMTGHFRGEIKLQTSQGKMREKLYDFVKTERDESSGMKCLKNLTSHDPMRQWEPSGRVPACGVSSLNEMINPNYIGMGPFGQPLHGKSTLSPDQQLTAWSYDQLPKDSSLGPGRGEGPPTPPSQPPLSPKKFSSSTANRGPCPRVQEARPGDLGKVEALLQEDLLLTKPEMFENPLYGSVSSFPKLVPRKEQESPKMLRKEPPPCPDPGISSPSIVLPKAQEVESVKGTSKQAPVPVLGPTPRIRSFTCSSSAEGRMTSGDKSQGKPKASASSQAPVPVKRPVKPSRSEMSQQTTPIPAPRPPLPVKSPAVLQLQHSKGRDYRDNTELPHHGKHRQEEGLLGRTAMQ
Nature of the data set: Fluorescence polarization. In kind it is biochemical.

For a further data set, the target named is T3, INPP5E (Homo sapiens, UniProt Q9NRR6).
T3 sequence (Q9NRR6 294-598 limits assumed): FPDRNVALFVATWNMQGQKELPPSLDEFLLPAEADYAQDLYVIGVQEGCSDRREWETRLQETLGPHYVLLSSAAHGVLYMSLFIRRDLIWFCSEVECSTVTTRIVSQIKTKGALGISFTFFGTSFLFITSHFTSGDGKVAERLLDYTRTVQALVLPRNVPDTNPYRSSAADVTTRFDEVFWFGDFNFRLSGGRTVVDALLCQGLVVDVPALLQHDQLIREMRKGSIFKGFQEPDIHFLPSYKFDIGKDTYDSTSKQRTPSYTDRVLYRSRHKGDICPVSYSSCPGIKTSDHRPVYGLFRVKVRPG
Put plainly: Fluorescence polarization. In kind it is biochemical. On the technique in general: In fluorescence polarisation assays a small probe gives low polarisation when free and higher when bound to something large.

For another data set, the target named is T4, INPP5A (Homo sapiens, UniProt Q14642).
T4 sequence (Q14642 1-402): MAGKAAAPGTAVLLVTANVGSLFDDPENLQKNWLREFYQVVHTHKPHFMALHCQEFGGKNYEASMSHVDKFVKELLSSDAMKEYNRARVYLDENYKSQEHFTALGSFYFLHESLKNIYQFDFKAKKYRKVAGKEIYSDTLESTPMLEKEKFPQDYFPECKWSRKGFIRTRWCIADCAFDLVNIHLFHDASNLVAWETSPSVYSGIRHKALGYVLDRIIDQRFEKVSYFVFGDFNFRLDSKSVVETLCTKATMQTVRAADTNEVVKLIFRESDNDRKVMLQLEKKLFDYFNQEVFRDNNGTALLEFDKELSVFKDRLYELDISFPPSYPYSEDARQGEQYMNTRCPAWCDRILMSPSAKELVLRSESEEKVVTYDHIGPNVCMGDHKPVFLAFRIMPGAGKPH
Nature of the data set: Malachite green assay with IP3 substrate, dose response. In kind it is biochemical.

Data set [2] deals with catalytic domain of human INPP5B (Homo sapiens, UniProt P32019). Put plainly: Isothermal titration calorimetry. In kind it is binding.
In a further data set the test system is cell cultures. Particulars: preliminary experiments / data not shown.
Data set [3] concerns the target T1, INPP5B. Put plainly: biochemical. This is another data set of the same source.
Data set [4] has as its system 5-phosphatase domain of human OCRL in COS-7 cells. Nature of the data set: Optogenetic in situ phosphatase assay. In kind it is cell-based. Particulars: 50 μM, COS-7, n=14 cells, P<0.001 vs DMSO control.
The test system of the next data set is human dermal fibroblasts. Put plainly: Cellular inositol lipid levels, 3H-myo-inositol labeling and HPLC. In kind it is cell-based. Particulars: 50 μM, 1 hour treatment.

This note sets out measurements from publication PMC4076014 (ACS chemical biology, 2014).

Where two headings read alike, the source gives them in different places.

As usually defined, the IC50 is the midpoint of a concentration-inhibition curve. Low values mean inhibition by little substance, high ones a need for much substance. Turning to `COc1cc(-c2nnc3sc(-c4cccs4)nn23)cc(OC)c1OC` [YU142717], the IC50 amounted to 920 nM on INPP5B catalytic domain and 2630 nM at INPP5B [1].
For `COc1cc(CN)c(Br)cc1OCc1ccccc1Cl` [YU144118], the IC50 against Synaptojanin 1 (SJ1) worked out at 1300 nM; against SHIP1, 8970 nM; against INPP5E, 5770 nM; against INPP5A, 1810 nM; on INPP5B catalytic domain, 1100 nM.
Regarding `CCOc1cc(CN)cc(Br)c1OCC` [YU144369], the IC50 on Synaptojanin 1 (SJ1) turned out to be 3630 nM; at SHIP1, 2520 nM; at INPP5E, 2330 nM; against INPP5A, 1070 nM; on INPP5B catalytic domain it was 570 nM. Moreover, the “Heat of binding to INPP5B catalytic domain (ITC, in words)” value in [2] (protein precipitation during the experiment, results inconclusive, data not shown) was “measurable heat of binding”. Further, the “Toxicity on cell cultures” value with cell cultures was “acute toxicity”.
As for `CC(C)Oc1c(Cl)cc(CN)cc1Cl` [YU144530], the IC50 was greater than 70000 nM against Synaptojanin 1 (SJ1); 2890 nM at SHIP1; 2800 nM at INPP5E; 1440 nM on INPP5A; 810 nM against INPP5B catalytic domain.
Turning to `c1cc(-c2nnc3scnn23)ccn1` [YU142670], the IC50 was 17500 nM against INPP5B [3], greater than 70000 nM against INPP5E and 530 nM on INPP5B catalytic domain. In addition, the “N (stoichiometry, ITC)” value in [2] (25°C) is 0.9108 ± 0.0547. The “ΔH (ITC)” value in [2] (25°C) is recorded as −7270 ± 588.6. Besides, the “ΔS (ITC)” value in [2] (25°C) is on record as 0.5933. Besides, the “Ka (association constant, ITC)” value in data set [2] (25°C, 500 µM compound into 33 µM INPP5B catalytic domain, 5% DMSO) is 2.352×10^5 ± 8.744×10^4. In addition, in data set [4], the “Loss (drop) of plasma membrane iRFP-PH-PLCδ1 fluorescence” value was determined as 32±3%. The “All other phosphoinositide levels measured” value with human dermal fibroblasts is recorded as “remained unchanged”.
